Measured values reported in ChEMBL document CHEMBL1201862, “PubChem BioAssay data set” (2004).
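A five-concentration, 48-hour dose response in 96-well plates underlies each endpoint, interpolated linearly between surrounding concentrations. GI50 marks 50% less growth.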 Active and inactive are the calls of the source. No stated cut-off is given here; in the data, active = GI50 up to about 1.1 µM and inactive = higher.

Columns and labels:
Assay in all cases: DTP human tumour cell line panel, 48 h
SF-295 = tested on: SF-295
HCT-116 = tested on: HCT-116
UO-31 = tested on: UO-31
NCI-H460 = tested on: NCI-H460
HL-60 = tested on: HL-60
SK-MEL-2 = tested on: SK-MEL-2
TK-10 = tested on: TK-10
UACC-257 = tested on: UACC-257
OVCAR-3 = tested on: OVCAR-3
ACHN = tested on: ACHN
EKVX = tested on: EKVX
NCI-H226 = tested on: NCI-H226
A549 = tested on: A549
COLO 205 = tested on: COLO 205
U-251 = tested on: U-251
IGROV-1 = tested on: IGROV-1
Malme-3M = tested on: Malme-3M
MCF7 = tested on: MCF7
NCI/ADR-RES = tested on: NCI/ADR-RES
MDA-MB-435 = tested on: MDA-MB-435
OVCAR-8 = tested on: OVCAR-8
SK-OV-3 = tested on: SK-OV-3
SW-620 = tested on: SW-620
K562 = tested on: K562
PC-3 = tested on: PC-3
LOX IMVI = tested on: LOX IMVI
OVCAR-5 = tested on: OVCAR-5
M14 = tested on: M14
MDA-MB-231 = tested on: MDA-MB-231
MDA-N = tested on: MDA-N
HCC 2998 = tested on: HCC 2998
NCI-H23 = tested on: NCI-H23
KM12 = tested on: KM12
HCT-15 = tested on: HCT-15
HOP-62 = tested on: HOP-62
SK-MEL-28 = tested on: SK-MEL-28
UACC-62 = tested on: UACC-62
CCRF-CEM = tested on: CCRF-CEM
SF-539 = tested on: SF-539
MOLT-4 = tested on: MOLT-4
SN12C = tested on: SN12C
RPMI-8226 = tested on: RPMI-8226
T47D = tested on: T47D
HOP-92 = tested on: HOP-92
786-0 = tested on: 786-0
SF-268 = tested on: SF-268
SR = tested on: SR
HT-29 = tested on: HT-29
OVCAR-4 = tested on: OVCAR-4
DU-145 = tested on: DU-145
SNB-75 = tested on: SNB-75
Hs-578T = tested on: Hs-578T
SK-MEL-5 = tested on: SK-MEL-5
CAKI-1 = tested on: CAKI-1
SNB-19 = tested on: SNB-19
RXF 393 = tested on: RXF 393
A498 = tested on: A498
NCI-H522 = tested on: NCI-H522

c1ccc2c(c1)c1c(n2CCOCCN2CCCCC2)CCCC1
GI50 (SF-295): 16.2 µM (inactive) | GI50 (HCT-116): 12.5 µM (inactive) | GI50 (UO-31): 11.1 µM (inactive) | GI50 (NCI-H460): 11.9 µM (inactive) | GI50 (HL-60): 2.37 µM (inactive) | GI50 (SK-MEL-2): 8.77 µM (inactive) | GI50 (TK-10): 14.3 µM (inactive) | GI50 (UACC-257): > 10 µM (inactive) | GI50 (OVCAR-3): 9.75 µM (inactive) | GI50 (ACHN): 14.2 µM (inactive) | GI50 (EKVX): 16.9 µM (inactive) | GI50 (NCI-H226): 21.7 µM (inactive) | GI50 (A549): 15.1 µM (inactive) | GI50 (COLO 205): 11.1 µM (inactive) | GI50 (U-251): 16.9 µM (inactive) | GI50 (IGROV-1): 13.9 µM (inactive) | GI50 (Malme-3M): 13.1 µM (inactive) | GI50 (MCF7): 13.7 µM (inactive) | GI50 (NCI/ADR-RES): 10.1 µM (inactive) | GI50 (MDA-MB-435): 12.8 µM (inactive) | GI50 (OVCAR-8): 14 µM (inactive) | GI50 (SK-OV-3): 18.7 µM (inactive) | GI50 (SW-620): 17.3 µM (inactive) | GI50 (K562): 6.18 µM (inactive) | GI50 (PC-3): 9.04 µM (inactive) | GI50 (LOX IMVI): 13.3 µM (inactive) | GI50 (OVCAR-5): 12.3 µM (inactive) | GI50 (M14): 12.8 µM (inactive) | GI50 (MDA-MB-231): 11.8 µM (inactive) | GI50 (MDA-N): 14.8 µM (inactive) | GI50 (HCC 2998): 11.5 µM (inactive) | GI50 (NCI-H23): 15.2 µM (inactive) | GI50 (KM12): 13 µM (inactive) | GI50 (HCT-15): 14.1 µM | GI50 (HOP-62): 15.1 µM (inactive) | GI50 (SK-MEL-28): 24.6 µM (inactive) | GI50 (UACC-62): 15 µM (inactive) | GI50 (CCRF-CEM): 12.4 µM (inactive) | GI50 (SF-539): 16.6 µM (inactive) | GI50 (MOLT-4): 10.5 µM (inactive) | GI50 (SN12C): 13.7 µM (inactive) | GI50 (RPMI-8226): 9.29 µM (inactive) | GI50 (T47D): 13.4 µM (inactive) | GI50 (HOP-92): 8.2 µM (inactive) | GI50 (786-0): 13.4 µM (inactive) | GI50 (SF-268): 16.9 µM (inactive) | GI50 (SR): 13.8 µM (inactive) | GI50 (HT-29): 11.6 µM (inactive) | GI50 (OVCAR-4): 11.1 µM (inactive) | GI50 (DU-145): 17.1 µM (inactive) | GI50 (SNB-75): 11.6 µM (inactive) | GI50 (Hs-578T): 14.5 µM (inactive) | GI50 (SK-MEL-5): 8.43 µM (inactive)

COC(=O)CCc1ccc(CCC(=O)OC)cc1
GI50 (SF-295): > 100 µM (inactive) | GI50 (HCT-116): > 100 µM (inactive) | GI50 (UO-31): > 100 µM (inactive) | GI50 (NCI-H460): > 100 µM (inactive) | GI50 (HL-60): > 100 µM (inactive) | GI50 (SK-MEL-2): > 100 µM (inactive) | GI50 (TK-10): > 100 µM (inactive) | GI50 (UACC-257): > 100 µM (inactive) | GI50 (OVCAR-3): > 100 µM (inactive) | GI50 (ACHN): > 100 µM (inactive) | GI50 (EKVX): > 100 µM (inactive) | GI50 (A549): > 100 µM (inactive) | GI50 (U-251): > 100 µM (inactive) | GI50 (CAKI-1): > 100 µM (inactive) | GI50 (IGROV-1): > 100 µM (inactive) | GI50 (Malme-3M): > 100 µM (inactive) | GI50 (MCF7): > 100 µM (inactive) | GI50 (SNB-19): > 100 µM (inactive) | GI50 (NCI/ADR-RES): > 100 µM (inactive) | GI50 (MDA-MB-435): > 100 µM (inactive) | GI50 (OVCAR-8): > 100 µM (inactive) | GI50 (RXF 393): > 100 µM (inactive) | GI50 (SK-OV-3): > 100 µM (inactive) | GI50 (SW-620): > 100 µM (inactive) | GI50 (K562): > 100 µM (inactive) | GI50 (PC-3): > 100 µM (inactive) | GI50 (LOX IMVI): > 100 µM (inactive) | GI50 (OVCAR-5): > 100 µM (inactive) | GI50 (M14): > 100 µM (inactive) | GI50 (MDA-MB-231): > 100 µM (inactive) | GI50 (MDA-N): > 100 µM (inactive) | GI50 (A498): > 100 µM (inactive) | GI50 (HCC 2998): > 100 µM (inactive) | GI50 (NCI-H23): > 100 µM (inactive) | GI50 (HCT-15): > 100 µM | GI50 (HOP-62): > 100 µM (inactive) | GI50 (SK-MEL-28): > 100 µM (inactive) | GI50 (CCRF-CEM): > 100 µM (inactive) | GI50 (SF-539): > 100 µM (inactive) | GI50 (MOLT-4): > 100 µM (inactive) | GI50 (RPMI-8226): > 100 µM (inactive) | GI50 (NCI-H522): > 100 µM (inactive) | GI50 (T47D): > 100 µM (inactive) | GI50 (HOP-92): > 100 µM (inactive) | GI50 (786-0): > 100 µM (inactive) | GI50 (SF-268): > 100 µM (inactive) | GI50 (SR): > 100 µM (inactive) | GI50 (HT-29): > 100 µM (inactive) | GI50 (OVCAR-4): > 100 µM (inactive) | GI50 (DU-145): > 100 µM (inactive) | GI50 (SNB-75): > 100 µM (inactive) | GI50 (Hs-578T): > 100 µM (inactive) | GI50 (SK-MEL-5): > 100 µM (inactive)

CNc1ccc(C(=O)CC(O)CCC(C)C2OC(=O)CC(O)CC(=O)CC(O)CC(O)CC(O)CC(O)CC3(O)CC(O)C(C(=O)NCCN4CCCCC4)C(CC(OC4OC(C)C(O)C(N)C4O)\C=C/C=C\C=C/C=C/C=C/C=C\C=C/C2C)O3)cc1 (configuration not stated)
GI50 (HL-60): 3.88 µM (inactive) | GI50 (MDA-MB-435): 1.01 µM (active) | GI50 (K562): 2.07 µM (inactive) | GI50 (A498): 0.288 µM (active) | GI50 (KM12): 1.82 µM (inactive) | GI50 (SR): 0.272 µM (active)
